From ChEMBL document CHEMBL1130790, “Peptidyl human heart chymase inhibitors. 2. Discovery of highly selective difluoromethylene ketone derivatives with Glu at P3 site” (Bioorg Med Chem Lett, 1998)
Where a SMILES comes first, the peptide text is derived from it. The star is where a group is joined. Cbz = O=C(OCc1ccccc1)*

Legend:
Chymase = molecular target: T1, Chymase (Homo sapiens, UniProt P23946); assay: Compound was evaluated for inhibitory activity against human heart chymase (HHC)
T1 sequence (P23946 whole entry): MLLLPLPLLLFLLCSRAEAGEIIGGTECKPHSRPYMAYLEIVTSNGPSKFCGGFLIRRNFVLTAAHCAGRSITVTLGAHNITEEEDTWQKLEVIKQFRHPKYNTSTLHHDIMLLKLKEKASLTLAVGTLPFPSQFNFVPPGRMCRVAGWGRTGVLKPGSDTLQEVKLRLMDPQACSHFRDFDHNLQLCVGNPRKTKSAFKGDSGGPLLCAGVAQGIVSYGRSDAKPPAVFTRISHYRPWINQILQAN

[1] = Selectivity ratio of Bovine chymotrypsin (BCT-Ki) to human heart chymase (HHC-Ki)

| Ki (Chymase) [nM] | Ratio [1] | Structure (SMILES) |
| --- | --- | --- |
| 14.2 |  | CC(C)(C)OC(=O)NC(CCC(=O)O)C(=O)N1CCC[C@H]1C(=O)NC(Cc1ccccc1)C(=O)C(F)(F)C(=O)Nc1cc(C(=O)O)c2ccccc2c1 (stereo partly specified) |
| 6 | > 16700 | CC(C)(C)OC(=O)NC(CCC(=O)O)C(=O)N1CCC[C@H]1C(=O)NC(Cc1ccccc1)C(=O)C(F)(F)C(=O)Nc1cc(C(=O)O)cs1 (stereo partly specified) |
| 36.6 | 2730 | CC(C)(C)OC(=O)NC(CC(=O)O)C(=O)N1CCC[C@H]1C(=O)NC(Cc1ccccc1)C(=O)C(F)(F)C(=O)Nc1cccc(C(=O)O)c1 (stereo partly specified) |
| 22.8 |  | CCCCNS(=O)(=O)c1cccc(NC(=O)C(F)(F)C(=O)C(Cc2ccccc2)NC(=O)[C@@H]2CCCN2C(=O)C(CCC(=O)O)NC(=O)OC(C)(C)C)c1 (stereo partly specified) |
| 21.1 | 58 | CC(C)(C)OC(=O)NC(CCC(=O)O)C(=O)N1CCC[C@H]1C(=O)NC(Cc1ccccc1)C(=O)C(F)(F)C(=O)Nc1cccc(C(N)=O)c1 (stereo partly specified) |
| 5.6 |  | CC(C)C(NC(=O)OC(C)(C)C)C(=O)N1CCC[C@H]1C(=O)NC(Cc1ccccc1)C(=O)C(F)(F)C(=O)Nc1cccc(C(=O)O)c1 (stereo partly specified) |
| 3.9 | 332 | CC(C)(C)OC(=O)NC(CCC(=O)O)C(=O)N1CCC[C@H]1C(=O)NC(Cc1ccccc1)C(=O)C(F)(F)C(=O)Nc1cccc(C(=O)O)c1 (stereo partly specified) |
| 27.5 | 38 | CC(C)(C)OC(=O)NC(CCC(=O)O)C(=O)N1CCC[C@H]1C(=O)NC(Cc1ccccc1)C(=O)C(F)(F)C(=O)Nc1cccc(S(N)(=O)=O)c1 (stereo partly specified) |
| 3 |  | CC[C@H](C)[C@H](NC(=O)OCc1ccccc1)C(=O)N[C@@H](CCC(=O)O)C(=O)N1CCC[C@H]1C(=O)N[C@@H](Cc1ccccc1)C(=O)OC (Cbz-IEPF-OMe) |
| 6.7 | 590 | CC(C)(C)OC(=O)NC(CCC(=O)O)C(=O)N1CCC[C@H]1C(=O)NC(Cc1ccccc1)C(=O)C(F)(F)C(=O)Nc1cccc(CC(=O)O)c1 (stereo partly specified) |
